Experimental findings from patent US9212134B2, “Inhibitors of viral entry into mammalian cells” (priority 2010, dated 2015) are described below.

The subject of one data set is HIV/HA pseudotype virus. It is filed as cell-based, influenza A virus H5N1.
For data set [1], the system named is HIV/HA (H5) pseudotype virus. Nature of the data set: organism not typed. In kind it is cell-based, influenza A virus H5N1.
Another data set relates to Influenza H1N1 (PR8). In kind it is cell-based, influenza virus H1N1 (PR8).
The test system of data set [2] is HIV/VSV-G pseudotype virus. Nature of the data set: organism not typed. It is filed as cell-based, vesicular stomatitis virus.
For the next data set, the system named is HIV/MLV pseudotype virus. In kind it is cell-based.
The test system of data set [3] is HIV/HA (H7) pseudotype virus. It is filed as cell-based, influenza virus (H7).
In data set [4] the test system is cell viability (endogenous cellular GAPDH). Nature of the data set: Cell viability, AlphaScreen SureFire GAPDH assay. Conditions: cytotoxicity.
In data set [5] the test system is Influenza A virus [A/WS/33]. Briefly: Plaque assay of influenza A virus A/WS/33 on MDCK cells. In kind it is cell-based, influenza A virus A/WS/33 (H1N1). To be noted: 25-200 nM (FIG. 7).

SMILES strings stand for the structures. “Also recorded” adds a separate entry of the source.

Regarding `Cl.N` [NH4Cl, ammonium chloride], the “reduction of HIV/HA virus infection” value in the data set with HIV/HA pseudotype virus is on record as “significantly reduced the virus infection”.
In the case of `O=C(CN(c1ccc(Cl)cc1Cl)S(=O)(=O)c1ccccc1)Nc1ccccc1F` [Compound 2], the IC90 is 3.9 µM in data set [1], above 100 µM in data set [2], 99 µM in the data set on HIV/MLV pseudotype virus and above 100 µM in data set [3]. For the same compound, the IC50 in the data set with Influenza H1N1 (PR8) worked out at 5.2 µM.
In data set [1], `O=C(CN(c1ccc(Cl)cc1Cl)S(=O)(=O)c1ccccc1)Nc1ccccc1F` [Compound 6] displayed an IC50 of 5.3 µM. This compound returned a CC50 in data set [4] above 25 µM.
Consider `COc1ccc(NC(=O)CN(c2cccc(Cl)c2)S(=O)(=O)c2ccccc2)c(OC)c1` [Compound 18], for which the IC50 in data set [1] was above 100 µM. The same compound gave a CC50 in data set [4] above 100 µM.
In data set [1], `COc1ccccc1N(CC(=O)Nc1cccc(C)c1C)S(=O)(=O)c1ccccc1` [Compound 14] had an IC50 above 100 µM. In data set [4], this compound came in with a CC50 above 100 µM.
In data set [1], `COc1cccc(NC(=O)CN(c2ccc(Cl)cc2C)S(=O)(=O)c2ccc(C)cc2)c1` [Compound 15] returned an IC50 above 100 µM. This compound also showed a CC50 in data set [4] of 43.4 µM.
In the same order, the values of `COc1ccc(NC(=O)CN(c2ccc(Cl)cc2)S(=O)(=O)c2ccc(C)cc2)cc1` [Compound 16] are above 100 µM and above 100 µM.
`Cc1cccc(C)c1NC(=O)CN(c1ccccc1Cl)S(=O)(=O)c1ccccc1` [Compound 20] gave an IC50 in data set [1] above 100 µM. Further, in data set [4], the CC50 was above 100 µM.
Regarding `COc1ccc(N(CC(=O)Nc2c(OC)cccc2OC)S(=O)(=O)c2ccccc2)cc1` [Compound 13], the IC50 in data set [1] was above 100 µM. The compound further displayed a CC50 in data set [4] above 100 µM.
For the compound `CO/C1=C\C(C)=C\[C@@H](C)[C@@H](O)[C@@H](C)C/C(C)=C/C=C/[C@H](OC)[C@@H]([C@@H](C)[C@@H](O)[C@H](C)[C@@]2(O)C[C@@H](O)[C@H](C)[C@@H](C(C)C)O2)OC1=O` [bafilomycin A], the “inhibition of infectivity of influenza virus infection” value in data set [5] is given as “efficiently inhibited the infectivity”. The “inhibition of infectivity of HIV/HA pseudotype virus” value in the data set with HIV/HA pseudotype virus is recorded as “efficiently inhibited the infectivity; also recorded: prevented HIV/HA infection”.
`COc1ccc(OC)c(NC(=O)CN(c2ccccc2Cl)S(=O)(=O)c2ccc(C)cc2)c1` [Compound 21] displayed an IC50 in data set [1] above 100 µM. In data set [4], this compound had a CC50 above 100 µM.
`COc1ccc(N(CC(=O)Nc2ccc(F)cc2)S(=O)(=O)c2ccccc2)cc1` [Compound 12] gave an IC50 in data set [1] above 100 µM. In data set [4], this compound had a CC50 above 100 µM.

As usually defined, the IC90 is the point of the concentration-response curve where the effect stands at 90%. High values mean a need for much substance, low ones an effect from little substance. As a reminder, the IC50 is the point on the concentration scale where inhibition reaches its midpoint. A high value points to weaker potency. The term CC50 denotes the concentration that lowers cell viability or growth by half. A high value points to better tolerance by the cells.
